Values quoted from earlier work, collected in patent EP0127274A2, “Esters of metronidazole and compositions containing them” (THE UPJOHN COMPANY, priority 1983, dated 1984).

Conditions: background statement

- solubility in water: approximately 10 mg/ml
SMILES: Cc1ncc([N+](=O)[O-])n1CCO [metronidazole, 1-(O-hydroxyethyl)-2-methyl-5-nitroimidazole]
